The text below walks through data of patent publication US8063089B2, “Inhibitors of nucleophosmin (NPM) and methods for inducing apoptosis” (Arizona Board of Regents on Behalf of the University of …, priority 2007, dated 2011).

By IC50 is commonly meant the midpoint of a concentration-inhibition curve.

For test [1], the system named is Granta (-4, -22 and -519) mantle cell lymphoma cell lines. Description: MTT cell viability assay, Granta. Particulars: for IC50: Homo sapiens, 96 h, Granta-4, -22, -519, MTT. Format: cell-based, human. On the technique in general: Tetrazolium assays rely on reduction of a dye to a coloured formazan, in cell work by metabolically active cells.
Experimental: Cells and Reagents. Human cancer cell lines used herein include prostate (LNCaP, PC3, DU145), colon (HCT116), lung (A549), breast (MCF7) purchased from American Type Culture Collection (Rockville, Md.) and mantle cell lymphoma (Granta-4, -22 and -519) were maintained in RPMI 1640 medium (Mediatech, Va.) supplemented with 10% fetal bovine serum, 2 mM sodium pyruvate and 100 units/ml penicillin/streptomycin at 37° C. in a humidified atmosphere of 5% CO2.
Test [2] relates to HCT116 colon cancer cells. Description: SCID mouse HCT116 colon cancer xenograft. The settings on record: for survival: i.p. for 4 weeks, NSC348884 1.5 mg/kg Mon/Wed/Fri, doxorubicin 20 ug/kg Mon. Format: in vivo, SCID mice. The protocol:
SCID mice were inoculated with 10×10^6 HCT116 colon cancer cells in their flanks to form measurable tumors in the range 60-100 mm^3. Mice were pair matched with 12 mice per arm. NSC348884 was administered (Monday, Wednesday, Friday), Doxorubicin (Monday), combination or vehicle by intra-peritoneal injection each for 4 weeks. Measurements of tumor growth were performed twice a week and tumor volume estimated according to the formula: [(width)^2×length]/2. Mice were weighed before the beginning of the experiment and twice a week thereafter to check for signs of toxicity. Control mice (upper panel, first bar) were treated with vehicle (DMSO), NSC348884 at 1.5 mg/kg NSC348884 (upper panel, second bar), very low dose doxorubicin at 20 ug/kg (upper panel, third bar), and the combination of NSC348884/doxorubicin (upper panel, fourth bar).

For the next test, the system named is 14-3-3 dimer. Description: 14-3-3 dimer formation control, native PAGE. The class given is cell-based, human. Particulars: LNCaP and HCT116 cells, 5 and 6 μM, 24 hr. The protocol: (§1) To examine whether NSC348884 specifically interacts with NPM and disrupts its oligomer formation, LNCaP and HCT116 cells with wild type NPM (no translocations) were treated with varying concentrations of NSC348884 (0, 5, 6 μM) for 24 hr, lyzed under non-denaturing conditions and analyzed by native PAGE which is an excellent tool for detecting oligomers and aggregates since the protein retains its folded conformation. We utilized 14-3-3 which forms dimers as a control. […] The two bands shown in HCT116 represent different isoforms of 14-3-3 proteins. Taken together, NSC348884 is able to bind to NPM and interfere with oligomer formation of NPM specifically.
(§2) Immunoblotting. LNCaP or HCT116 cells were lysed in NP-40 lysis buffer containing 50 mM Tris-Cl (pH 7.4), 0.15 M NaCl, 0.5% NP-40, 1 mM DTT, 50 mM sodium fluoride and 2 μl/ml of a protease inhibitor cocktail (Sigma, St. Louis, Mo.). Protein concentrations were-determined using the Bio-Rad protein assay kit (Hercules, Calif.) and 50 μg of protein was resolved by electrophoresis on a 10% SDS-PAGE. […] The membrane was subjected to the indicated antibodies and the proteins were detected by the SuperSignal West Pico detection system (Pierce, Rockford, Ill.). […]

In a further test the test system is LNCaP. The experiment in a line: Apoptosis markers by immunoblotting (PARP cleavage, H2AX phosphorylation). The class given is cell-based, human. Particulars: 4 and 5 μM. The protocol:
Immunoblotting. LNCaP or HCT116 cells were lysed in NP-40 lysis buffer containing 50 mM Tris-Cl (pH 7.4), 0.15 M NaCl, 0.5% NP-40, 1 mM DTT, 50 mM sodium fluoride and 2 μl/ml of a protease inhibitor cocktail (Sigma, St. Louis, Mo.). Protein concentrations were-determined using the Bio-Rad protein assay kit (Hercules, Calif.) and 50 μg of protein was resolved by electrophoresis on a 10% SDS-PAGE. The proteins were then transferred onto a nitrocellulose membrane and nonspecific binds were blocked by incubating with 5% nonfat milk in TBST buffer (0.01 M Tris-Cl, pH 8.0, 0.15 M NaCl, 0.5% Tween-20) at room temperature for 1 hr. The membrane was subjected to the indicated antibodies and the proteins were detected by the SuperSignal West Pico detection system (Pierce, Rockford, Ill.). For native PAGE gel experiment, the samples were not denatured by heating and the electrophoresis was run in the absence of SDS.
Background: A western blot detects proteins with antibodies after separation by electrophoresis.

In the next test the test system is LNCaP cells. Description: Apoptosis by morphology (acridine orange/ethidium bromide fluorescent staining). The class given is cell-based, human. Particulars: 24 hr. The protocol:
(§3) Apoptosis Assays. Drug treated LNCaP cells were examined for apoptotic morphology using a fluorescence staining technique as described previously (Qi and Martinez, 2003). Briefly, cells were exposed to DMSO or 1 to 5 μM of NSC348884 for 24 hr and were harvested by trypsinization. After staining with a mixed dye solution containing […] each of acridine orange and ethidium bromide the morphology of the cells were observed by fluorescence microscopy, and the number of apoptotic cells was quantified. Studies were performed in triplicate and mean+SD calculated. In all cases a minimum of 200 cells were counted for each sample. Using Annexin V staining to detect apoptosis, treated MCF-7, PC-3, DU145 and Granta (−519, −4, −22) cells were harvested by trypsinization and rinsed with cold PBS once. After centrifugation for 5 min, cancer cells were resuspended in 500 μl of 1 Annexin V binding buffer (BioVision, Annexin V-FITC Reagent Kit, Cat. #1001-1000) and then added 1 μl of Annexin V-FITC and 1 μl of Propidium Iodide (BioVision, Annexin VFITC Reagent Kit). After incubation for 5 min at room temperature in the dark, the samples were analyzed by flow cytometry.

A further test deals with LNCaP prostate cell line. Description: MTT cell viability assay, LNCaP. Format: cell-based. Particulars: Homo sapiens, 96 h, 4 days. The protocol: NPM plays an essential role in cellular activities such as ribosome biogenesis, cell proliferation, apoptosis and centrosome duplication. Therefore, inhibition of NPM should affect cell growth. To determine the effect of NPM inhibitor NSC348884 on cancer cell proliferation, cell viability assays were conducted on LNCaP and Granta (human mantle cell lymphoma) cells (Granta-519, -4, -22) with varying concentrations of NSC348884 over 4 days. […] The difference in IC50 is attributed to the differential proliferative capacity of the two types of cancer cell lines. Since Rev peptide binds to NPM and potentates the doxorubicin-induced decrease of cellular viability and inhibition of tumor growth in nude mice (Chan et al., 2005), we evaluated if NSC348884 would be additive or synergistic with doxorubicin, a therapy commonly used in this disease. An IC50 of 0.01-0.02 μM for doxorubicin was established for all 3 Granta cell lines, while at 0.1 nM doxorubicin had no effect on cell viability
Cells and Reagents. […]
Cell Viability Assays. […] The media and MTT dye were aspirated, and 100 μL dimethyl sulfoxide (DMSO) was added to each well, absorbance was read at 540 nm on a plate reader (Wallac Vector, PerkinElmer). Data was expressed as the percent survival of control calculated from the absorbance, corrected for background.

In test [3] the test system is p53. The experiment in a line: p53 immunocytochemistry. Format: cell-based, human. The settings on record: LNCaP and A549, 5 μM, 6 h, versus vehicle. The text has this:
Mounting evidences indicate that NPM negatively regulates tumor suppressor p53 through interaction with p53 directly to prevent its phosphorylation on Ser15 (Maiguel et al., 2004) or through binding with p14ARF to impair the ARF-Hdm2 association and increase Hdm2/p53 complex formation (Gjerset, 2006). NPM knockdown by small interfering RNA enhances p53 phosphorylation and transcriptional activity. Therefore, inhibition of NPM by NSC348884 could affect p53 status. To address this, LNCaP cells were untreated and treated with different dosage of NSC348884 for 2 h to 24 h, and the changes in p53 protein and phosphorylation levels were determined by Western blot. Indeed, NSC348884 increased both p53 protein level and phosphorylation on Ser15 in a dose-dependent manner after 2 h of incubation (FIG. 5A).
Immunocytochemistry. LNCaP, A549 or HCT116 cells grown on cover slips were treated with DMSO or 5 μM of NSC348884 for 6 hr and then fixed in cold methanol:acetone (3:7) for 5 minutes. The cover slips were washed twice with cold PBS and blocked with blocking buffer (1% BSA, 0.01% saponin and 1% normal mouse serum in PBS) for 1 hr at room temperature. The cover slips were then immunostained using anti-p53 antibody at the dilution 1:100 in blocking buffer overnight at 4° C. […]

The test system of test [4] is distinct cancer cell lines. Description: Inhibition of cell proliferation, summary. Format: cell-based. The settings on record: Homo sapiens. The protocol:
Cell Viability Assays. LNCaP, Granta-4, Granta-22 and Granta-519 cell lines were seeded into 96-well tissue culture plates with 50,000 cells per well, cultured for 24 hours and exposed to NSC348884, doxorubicin or combination for four days. All studies were performed in triplicate and were repeated 3 different times. After incubation, 20 μL of 2 mg/m L 3-(4,5-dimethylthiazol-2-yl)-2,5-diphenyltetrazolium bromide (MTT) were added to each well and incubated an additional four hours. The media and MTT dye were aspirated, and 100 μL dimethyl sulfoxide (DMSO) was added to each well, absorbance was read at 540 nm on a plate reader (Wallac Vector, PerkinElmer). Data was expressed as the percent survival of control calculated from the absorbance, corrected for background.

The target of another test is T1, NPM oligomer (Homo sapiens, UniProt P06748).
T1 construct: endogenous in cells; host or cells: LNCaP and HCT116
The experiment in a line: NPM oligomer formation by native PAGE / immunoblotting. Particulars: LNCaP and HCT116 cells, 5 and 6 μM, 24 hr. The class given is cell-based. The protocol:
as §1, §2

For test [5], the system named is MCF7, PC-3, DU145 and Granta cells. The experiment in a line: Annexin V staining and flow cytometry. The settings on record: several different cancer cell lines, 24 h. Format: cell-based, human. The protocol: Furthermore, apoptosis induced by NSC348884 was confirmed by Annexin V staining and flow cytometry (FACS) analysis.
as §3

Test [6] deals with p53. Description: p53 / p21 Western blotting. Format: cell-based, human.

T1 sequence (P06748 whole entry): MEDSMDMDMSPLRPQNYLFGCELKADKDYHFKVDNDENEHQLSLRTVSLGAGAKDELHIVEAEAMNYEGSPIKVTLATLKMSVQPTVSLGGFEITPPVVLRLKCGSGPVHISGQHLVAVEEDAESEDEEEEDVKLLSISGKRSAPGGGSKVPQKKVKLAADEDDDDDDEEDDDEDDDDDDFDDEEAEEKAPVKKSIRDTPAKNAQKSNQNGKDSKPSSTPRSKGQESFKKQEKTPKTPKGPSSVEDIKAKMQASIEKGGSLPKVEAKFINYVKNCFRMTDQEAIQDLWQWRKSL

In test [1] (4 days), `COc1cccc2c1C(=O)c1c(O)c3c(c(O)c1C2=O)C[C@@](O)(C(=O)CO)C[C@@H]3O[C@H]1C[C@H](N)[C@H](O)[C@H](C)O1` [doxorubicin, reference compound] displayed an IC50 of 10 to 20 nM. The “effect on cell viability” value in test [1] (doxorubicin at 0.1 nM alone) is recorded as “no effect”. Besides, the survival in test [2] is recorded as 41 days.
Turning to `Cc1ccc2nc(CN(CCN(Cc3nc4ccc(C)cc4[nH]3)Cc3nc4ccc(C)cc4[nH]3)Cc3nc4ccc(C)cc4[nH]3)[nH]c2c1` [NSC348884, N,N,N′,N′-tetrakis[(5-methyl-2-benzimidazolyl)methyl]-1,2-ethanediamine], in the test on 14-3-3 dimer, the 14-3-3 dimer formation result is reported as “no effect”. Moreover, the “PARP-cleavage and H2AX phosphorylation on Ser139” value with LNCaP is “correlated well with PARP-cleavage and induction H2AX phosphorylation”. Moreover, the “apoptosis by morphology, dose dependence” value in the test with LNCaP cells (0-5 μM) is listed as “dose-dependent increase in apoptosis”. In the test with LNCaP cells (4 and 5 μM), the apoptosis by morphology was over 50%. The results for the IC50 (in test [1] (4 days); in the test with LNCaP prostate cell line; in [4]) were about 1700 nM, about 4000 nM and 1700 to 4000 nM, respectively. For the same compound, in [1] (NSC348884 at 1 μM alone, 4 days, MTT), the “effect on cell viability” value is “no effect”. Also, the survival in test [2] came out at 53 days. Besides, in test [2] (versus control), the survival advantage entry is “statistically significant survival advantage”. Also, in the test with p53 [3], the “p53 by immunocytochemistry staining” value is given as “higher p53 proteins were induced”. In addition, the NPM oligomer formation entry at NPM oligomer is on record as “disrupted”. In addition, the “apoptosis by Annexin V binding” value in [5] is recorded as “induced apoptosis”. Moreover, in the test with p53 [6] (HCT116, 5 μM, 24 h), the p21 protein level result is on record as “up-regulated”. Also, the “p53 protein level and phosphorylation on Ser15” value in the test on p53 [6] (LNCaP, after 2 h of incubation) is on record as “increased”. Further, the p53 level result in the test on p53 [6] (breast cancer cell line MCF7) was “enhanced p53”.
